Here are results for two compounds from ChEMBL document CHEMBL5154935, “Design, Synthesis, and Biological Evaluation of Novel Evodiamine Derivatives as Potential Antihepatocellular Carcinoma Agents” (J Med Chem, 2022).

Data set [1] is described as follows: Half life in Sprague-Dawley rat at 80 mg/kg, ip measured upto 24 hrs by LC-MS analysis. Format: ADME, organism-based. Particulars: in vivo.
Data set [2] concerns SK-HEP1. Nature of the data set: Antiproliferative activity against human SK-Hep1 cells assessed as inhibition of cell viability at less than 0.227 uM treated for 24 hrs by MTT assay. Format: functional. Background: Tetrazolium dyes change colour on reduction, which living cells bring about.
Data set [3] in a line: Toxicity in BALB/c mouse xenografted with human Huh-7 cells assessed as histopathological change in lung at 10 mg/kg, ip qd for 11 days and measured after 12 days by hematoxylin and eosin staining based assay. The note with it: in vivo, 288 h, time 12 day. The class given is organism-based.
Data set [4] can be described thus: Toxicity in BALB/c mouse xenografted with human Huh-7 cells assessed as decrease in body weight at 10 mg/kg, ip qd for 11 days and measured every 2 days. Format: organism-based. Particulars: in vivo, 264 h, time 11 day. On the technique in general: Xenograft models place foreign cells or tissue in a host animal.
The subject of data set [5] is Huh-7. Nature of the data set: Antitumor activity against human Huh-7 cells xenografted in BALB/c mouse assessed as tumor growth inhibition at 10 mg/kg, ip qd for 11 days and measured every 2 days relative to control. Particulars: Huh-7, 264 h, time 11 day, read-out: TGI. The class given is functional.
Data set [6] can be described thus: Toxicity in BALB/c mouse xenografted with human Huh-7 cells assessed as bone marrow suppression at 10 mg/kg, ip qd for 11 days and measured on day 11. Format: organism-based. The note with it: in vivo, 264 h, time 11 day.
In data set [7] the test system is Huh-7. Nature of the data set: Antitumor activity in human Huh-7 cells xenografted in BALB/c mouse assessed as decrease in Ki-67 positive cells at 10 mg/kg, ip qd for 11 days and measured on day 12 by immunohistochemistry staining based assay. The note with it: time 12.0 day. Format: functional, organism-based.
In data set [8] the test system is Huh-7. Nature of the data set: Antitumor activity against human Huh-7 cells xenografted in BALB/c mouse assessed as reduction in neo-vascularisation at 10 mg/kg, ip qd for 11 days and measured after 12 days by hematoxylin and eosin staining based assay. Particulars: time 12.0 day. Format: functional, organism-based.
In data set [9] the test system is SK-HEP1. The data set can be described thus: Induction of mitochondrial membrane potential changes in human SK-Hep1 cells assessed as decrease in TMRE positive cells at 10 to 80 nM incubated for 24 hrs by TMRE staining based flow cytometry (reference value: 87.92 %). Format: functional. Also noted: scale not given: the % may be the effect or the level left. The note with it: dose 10-80 nM. On the technique in general: In flow cytometry, cells or beads pass a laser one at a time.

The nature of data set [10]: Toxicity in BALB/c mouse xenografted with human Huh-7 cells assessed as aplastic anemia at 10 mg/kg, ip qd for 11 days and measured on day 11. Format: organism-based. The note with it: in vivo, 264 h, time 11 day.
Data set [11] can be described thus: Tmax in Sprague-Dawley rat at 80 mg/kg, ip measured upto 24 hrs by LC-MS analysis. Format: ADME, organism-based. The note with it: in vivo.
For data set [12], the system named is Huh-7. Nature of the data set: Induction of apoptosis in human Huh-7 cells assessed as early apoptotic cells at 40 nM incubated for 24 hrs by annexin V-FITC/PI staining flow cytometry (reference value: 0.33 %). Format: functional.
The nature of data set [13]: Acute toxicity in Kunming mouse assessed as frequency of eating at 400 mg/kg, ip measured for 14 consecutive days. Format: organism-based. The note with it: in vivo, 336 h, time 14 day.
The nature of data set [14]: Toxicity in BALB/c mouse xenografted with human Huh-7 cells assessed as reduction in WBC levels at 10 mg/kg, ip qd for 11 days and measured on day 11. Format: organism-based. Particulars: in vivo, 264 h, time 11 day.
The nature of data set [15]: Toxicity in BALB/c mouse xenografted with human Huh-7 cells assessed as histopathological change in spleen at 10 mg/kg, ip qd for 11 days and measured after 12 days by hematoxylin and eosin staining based assay. Format: organism-based. The note with it: in vivo, 288 h, time 12 day.
Data set [16] is described as follows: Toxicity in BALB/c mouse xenografted with human Huh-7 cells assessed as reduction in platelet levels at 10 mg/kg, ip qd for 11 days and measured on day 11. Format: organism-based. Particulars: in vivo, 264 h, time 11 day.
Data set [17] in a line: Cmax in Sprague-Dawley rat at 80 mg/kg, ip measured upto 24 hrs by LC-MS analysis. The class given is ADME, organism-based. Further details: dose 80 mg/kg, time < 24 hrs, route ip. The note with it: in vivo.
Data set [18] is described as follows: Acute toxicity in Kunming mouse assessed as animal survival at 400 mg/kg, ip measured for 14 consecutive days. Format: organism-based. The note with it: in vivo, 336 h, time 14 day.
Data set [19] is described as follows: AUC (0 to t) in Sprague-Dawley rat at 80 mg/kg, ip measured upto 24 hrs by LC-MS analysis. Format: ADME, organism-based. Further details: time < 24 hrs, dose 80 mg/kg, route ip. The note with it: in vivo.
A short description of data set [20]: Toxicity in BALB/c mouse xenografted with human Huh-7 cells assessed as reduction in RBC levels at 10 mg/kg, ip qd for 11 days and measured on day 11. The class given is organism-based, Erythrocyte. The note with it: in vivo, 264 h, time 11 day.
Data set [21] deals with SK-HEP1. Nature of the data set: Antiproliferative activity against human SK-Hep1 cells assessed as inhibition of cell viability at less than 0.068 uM treated for 24 hrs by MTT assay. The class given is functional.
Data set [22] can be described thus: Toxicity in BALB/c mouse xenografted with human Huh-7 cells assessed as histopathological change in kidney at 10 mg/kg, ip qd for 11 days and measured after 12 days by hematoxylin and eosin staining based assay. The class given is organism-based. The note with it: in vivo, 288 h, time 12 day.
Data set [23] relates to SK-HEP1. Nature of the data set: Induction of apoptosis in human SK-Hep1 cells assessed as late apoptotic cells at 40 nM incubated for 24 hrs by annexin V-FITC/PI staining flow cytometry (reference value: 1.13 %). Format: functional.
The nature of data set [24]: Toxicity in BALB/c mouse xenografted with human Huh-7 cells assessed as histopathological change in heart at 10 mg/kg, ip qd for 11 days and measured after 12 days by hematoxylin and eosin staining based assay. Format: organism-based. Particulars: in vivo, 288 h, time 12 day.
A short description of data set [25]: Acute toxicity in Kunming mouse assessed as frequency of defecation at 400 mg/kg, ip measured for 14 consecutive days. The class given is organism-based. The note with it: in vivo, 336 h, time 14 day.
The nature of data set [26]: MRT (0 to t) in Sprague-Dawley rat at 80 mg/kg, ip measured upto 24 hrs by LC-MS analysis. Format: ADME, organism-based. Particulars: in vivo.
The nature of data set [27]: Toxicity in BALB/c mouse xenografted with human Huh-7 cells assessed as histopathological change in liver at 10 mg/kg, ip qd for 11 days and measured after 12 days by hematoxylin and eosin staining based assay. Format: organism-based. The note with it: in vivo, 288 h, time 12 day.
In data set [28] the test system is Huh-7. The data set can be described thus: Antiproliferative activity against human Huh-7 cells assessed as inhibition of cell viability at less than 0.023 uM treated for 24 hrs by MTT assay. The class given is functional.
Data set [29] in a line: Acute toxicity in Kunming mouse assessed as frequency of defecation at 100 mg/kg, ip measured for 14 consecutive days. Format: organism-based. The note with it: in vivo, 336 h, time 14 day.
Data set [30] can be described thus: Acute toxicity in Kunming mouse assessed as frequency of eating at 100 mg/kg, ip measured for 14 consecutive days. The class given is organism-based. The note with it: in vivo, 336 h, time 14 day.
Data set [31] deals with Huh-7. Nature of the data set: Antiproliferative activity against human Huh-7 cells assessed as inhibition of cell viability at less than 0.021 uM treated for 24 hrs by MTT assay. Format: functional.
Data set [32] concerns SK-HEP1. The data set can be described thus: Induction of mitochondrial membrane potential changes in human SK-Hep1 cells assessed as decrease in TMRE positive cells at 10 to 80 nM incubated for 24 hrs by TMRE staining based flow cytometry (reference value: 86.19 %). Format: functional. Further details: scale not given: the % may be the effect or the level left. Particulars: dose 10-80 nM.

A short description of data set [33]: Acute toxicity in Kunming mouse assessed as animal survival at 100 mg/kg, ip measured for 14 consecutive days. Format: organism-based. The note with it: in vivo, 336 h, time 14 day.

Molecules are shown by their SMILES. Calls of active or inactive are those of the source. The calls are words filed in the database; no cut-off is given here. A value given as a limit tells only on which side of the number the result lay.

Broadly, the half-life is the time in which the quantity being followed falls by half. For orientation: Tmax means the time from dosing to the highest level. What is called Cmax is the maximum level reached in the sampled fluid or tissue. In general, AUC(0-t) refers to exposure summed from dosing to a finite time, without extrapolation to infinity. One may read the MRT last as the average time that molecules of a dose stay in the body.

In [1], `CC(=O)Oc1ccc2[nH]c3c(c2c1)CCN1C(=O)c2cc(F)cc(F)c2N(c2cccc(F)c2)C31` (stereo not given) gave a half-life of 7.24 h. Besides, the Activity with SK-HEP1 [2] is over 80%; in data set [3], “Non-Toxic”; in data set [4], “Non-Toxic”; in data set [6] it was “Non-Toxic”; in the data set with SK-HEP1 [9], 65.21%; in [10] it was “Non-Toxic”. The Activity is 1.37% with Huh-7 [12]; “Non-Toxic” in data set [13]; “Non-Toxic” in data set [14]; “Non-Toxic” in data set [15]; “Non-Toxic” in [16]; “Non-Toxic” in data set [18]. Further, the Activity result in [20] is on record as “Non-Toxic”; in the data set with SK-HEP1 [21], over 80%; in [22], “Non-Toxic”; with SK-HEP1 [23], 13.4%; in data set [24], “Non-Toxic”; in [25], “Non-Toxic”. Besides, the Activity entry in data set [27] is “Non-Toxic”. In the data set on Huh-7 [5], the inhibition in vivo at 10 mg/kg worked out at 60.4%. For the same compound, the result in the data set with Huh-7 [7] and with Huh-7 [8] was Active. In data set [11], the Tmax came to 3 h. In data set [17], the Cmax turned out to be 0.35 µg/mL. The area under the curve AUC(0-t) at 24 h in data set [19] was found to be 3.07 µg·h/mL. Moreover, in data set [26], the MRT last at 24 h came to 11.5 h.

On to `O=C1c2cc(F)cc(F)c2N(c2cccc(F)c2)C2c3[nH]c4ccc(O)cc4c3CCN12` (stereo not given), for which the Activity with Huh-7 [28] is recorded as over 80%; in data set [29] it was “Non-Toxic”; in data set [30], “Non-Toxic”; with Huh-7 [31], over 80%; in the data set with Huh-7 [12], 2.51%; in the data set on SK-HEP1 [32], 63.69%. The figures for the Activity result (in data set [33]; with SK-HEP1 [23]) were “Non-Toxic” and 13.6%, respectively.
